The text below walks through data of US9532994B2, “Agents and methods for enhancing bone formation by oxysterols in combination with bone morphogenic proteins” (THE REGENTS OF THE UNIVERSITY OF CALIFORNIA, priority 2003, dated 2017).

What all share (assay type): cell-based, mouse
One experiment concerns ERK2. Briefly: Western blot for pERK or ERK in M2 cells. The following applies: 5 μM 20S for 1, 4, or 8 hours (FIG. 10A). The protocol:
(§1) Western blot analysis—After treatments, cells were lysed in lysis buffer, protein concentrations determined using the Bio-Rad protein assay (Hercules, Calif. U.S.A.), and SDS-PAGE performed as previously described. Probing for native and phosphorylated ERKs was performed as previously reported.
(§2) (A) M2 cells at confluence were pretreated for four hours with RPMI containing 1% FBS, followed by treatment with control vehicle or 5 μM 20S oxysterol for 1, 4, or 8 hours. Next total cell extracts were prepared and analyzed for levels of native or phosphorylated ERK (pERK) using specific antibodies as previously described. Data from a representative of four experiments are shown, each treatment shown in duplicate samples. (B) M2 cells at confluence were pretreated for 2 hours with control vehicle (C) or 20 μM PD98059 (PD) in osteogenic medium as previously described. Next, a combination of 22R and 20S oxysterols (RS, 5 μM each) were added to appropriate wells as indicated. After 10 days of incubation, matrix mineralization was quantified by the ^45Ca incorporation assay as previously described. Data from a representative of three experiments are reported as the mean±SD of quadruplicate determinations, normalized to protein concentration (p<0.01 for RS vs. RS+PD). […] After 10 days, adipocytes were visualized by oil Red O staining and quantified by light microscopy as previously described. […]

Another experiment relates to ERK1. Nature of the experiment: Western blot for pERK or ERK in M2 cells. To be noted: 5 μM 20S for 1, 4, or 8 hours (FIG. 10A). Here is the method:
as §1, §2

The next experiment deals with adipocyte P2 gene (aP2). Nature of the experiment: Northern blotting for adipocyte P2 gene in M2 cells. To be noted: 10 μM Tro with 10 μM 20S, 10 days (FIGS. 7C and D). Here is the method: RNA isolation and Northern blot analysis - Following treatment of cells under appropriate experimental conditions, total RNA was isolated using the RNA isolation kit from Stratagene (La Jolla, Calif., U.S.A.). Total RNA ([…]) was run on a 1% agarose/formaldehyde gel and transferred to Duralon-UV membranes (Strategene, CA, U.S.A.) and cross-linked with UV light. The membranes were hybridized overnight at 60° C. with ^32P-labeled mouse osteocalcin cDNA probe, mouse lipoprotein lipase (LPL), mouse adipocyte protein 2 (aP2) PCR-generated probes, human 28S or 18S rRNA probes obtained from Geneka Biotechnology (Montreal, Quebec, Canada) and Maxim Biotech (San Francisco, CA, U.S.A.), respectively. […] The extent of gene induction was determined by densitometry.
Test 2: (A) M2 cells at confluence were treated in RPMI containing 10% FBS with control vehicle or 10 μM troglitazone (Tro) in the absence or presence of 10 μM 20S or 22S oxysterols. After 10 days, adipocytes were visualized by oil Red O staining and quantified by light microscopy, shown in (B). […] After 10 days, total RNA was isolated and analyzed for lipoprotein lipase (LPL), adipocyte P2 gene (aP2) or 18S rRNA expression by Northern blotting as described (Ref). […]

On to `CC(C)CCC[C@](C)(O)[C@H]1CC[C@H]2[C@@H]3CC=C4C[C@@H](O)CC[C@]4(C)[C@H]3CC[C@@]21C` [20S, 20(S)-hydroxycholesterol], for which the “activation of ERK2” value in the experiment with ERK2 was “sustained activation”. Moreover, the “activation of ERK1” value in the experiment with ERK1 is “sustained activation”. Moreover, the “expression of adipocyte P2 gene (aP2)” value in the experiment with adipocyte P2 gene (aP2) is “inhibition of the expression”.
